From ChEMBL document CHEMBL1149744, “Terpenoids and Alkaloids from Esenbeckia belizencis. Spontaneous Oxidation of Furoquinoline Alkaloids” (J Nat Prod, 1992)

System: Artemia salina
Assay: Toxicity against Artemia salina
Assay type: organism-based
Conditions: in vivo

`COc1c2ccoc2nc2c(OC)c3c(cc12)OCO3` [FLINDERSIAMINE] was tested, and the LC50 was over 1000 ppm.

`COc1cc2nc3occc3c(OC)c2cc1OC` [KOKUSAGININE] was tested, and the LC50 was 367 ppm.
